Experiments:
CYP3A4 = molecular target: T1, CYP3A4 (Homo sapiens, UniProt P08684); assay: CYP3A4 P450-Glo luminescent inhibition assay; format: in vitro ADME; conditions: 0.01–25 μM
T1 construct: purchased Promega (Madison, WI, USA)
From the text: The luminescent CYP3A4 P450-Glo and CYP2D6 P450-Glo assays and protocols were provided by Promega (Madison, WI, USA). The P450-Glo systems based on the conversion proluciferins, derivatives of beetle luciferin [(4S)-4,5-dihydro-2-(6′-hydroxy-2′-benzothiazolyl)-4-thiazolecarboxylic acid] into D-luciferin were catalyzed by respective CYP isoform. D-Luciferin is formed and detected in a second reaction with the luciferin detection reagent (LDR). The amount of light produced in the second reaction is proportional to CYP activity.
The stock solutions (10 mM) of the references ketoconazole (KE), quinidine (QD), and examined compounds were performed in DMSO. The 4× concentrated dilutions were prepared before the assays. […]
The CYPs, proluciferin, and examined compounds (25 μL/well) were preincubated first for 5 min, and next the NADPH regeneration system was added (25 μL) to start the reaction. […] The control reactions for measuring the 100% of CYPs activity and minus-CYP negative control reactions for measure background luminescence were also prepared. […] Finally, LDR was added (50 μL/well), and after 20 min of incubation in room temperature the luminescence signal was measured with a microplate reader (EnSpire, PerkinElmer) in luminescence mode. […] The IC50 values and were calculated using GraphPad Prism 5 software.

HepG2 cells = assay: LDH assay, hepatotoxicity in HepG2 cells; format: cell-based, human; conditions: HepG2, 24 h, 0.1–25 μM
Procedure: Human hepatocellular carcinoma cells (HepG2) were cultured using standard procedures (protocol from ATCC). Cells were cultured in Eagle’s minimum essential medium (EMEM) in flasks with an area of 25 cm^2 (Falcon), supplemented with 10% of fetal bovine serum (FBS, Life Technologies) with the addition of 100 IU/mL penicillin (Sigma-Aldrich) and 100 μg/mL streptomycin (Sigma-Aldrich) and incubated at 37 °C in a humidified atmosphere with 5% CO2.
Cells were seeded at density 2 × 10^4 cells/per well in […] plates. After 24 h, compound 27 and reference standard DOX (highly cytotoxic agent) were added to final concentrations of 0.1–150 μM. After 24 h incubation, plates were centrifuged (200g, 2 min) and 50 μL of the supernatant was transferred into the corresponding 96-well plate. Subsequently, 50 μL of LDH-reaction mixture prepared according to the manufacturer’s instructions (Invitrogen) was added to each well. Incubation was conducted in darkness for 30 min at room temperature. Next, stop solution was added and absorbance was measured at 490 nm (A490) using a plate reader (Spectra Max iD3, Molecular Devices). Cytotoxicity was determined as follows: cytotoxicity (%) = [(compound LDH activity – spontaneous LDH activity)/(maximum LDH activity – spontaneous LDH activity)] × 100. The maximum LDH activity was prepared by treating cells with lysis buffer. […]

[1] = test system: Salmonella typhimurium TA100; conditions: without S9 fraction
Procedure: Ames microplate fluctuation protocol (MPF) assay was performed with Salmonella typhimurium strain TA100, enabling the detection base substitution mutations. Bacterial strain and exposure and indicator medium were purchased from Xenometrix AG (Allschwil, Switzerland). The mutagenic potential of tested structures was evaluated by incubation of bacteria, incapable of producing histidine, with particular concentration of test compounds for 90 min in exposure medium, containing limited amount of histidine. The occurrence of reversion events to histidine prototrophy was observed as a growth of bacteria in the indicator medium without histidine after 48 h of incubation in room temperature. Bacterial growth in 384-well plates was visualized by color change of medium from violet to yellow due to addition of pH indicator dye. Compound was classified as mutagenic, if the fold increase in number of positive wells over the medium control baseline was greater than 2.0. The solvent control baseline was defined as the mean number of positive wells in the negative control sample, increased by one standard deviation. 1% DMSO in media was used as a negative and 4-nitroquinoline N-oxide (NQNO) as positive control. The experiment was performed in triplicate. Fraction S9 was not added.

T1 sequence (P08684 whole entry): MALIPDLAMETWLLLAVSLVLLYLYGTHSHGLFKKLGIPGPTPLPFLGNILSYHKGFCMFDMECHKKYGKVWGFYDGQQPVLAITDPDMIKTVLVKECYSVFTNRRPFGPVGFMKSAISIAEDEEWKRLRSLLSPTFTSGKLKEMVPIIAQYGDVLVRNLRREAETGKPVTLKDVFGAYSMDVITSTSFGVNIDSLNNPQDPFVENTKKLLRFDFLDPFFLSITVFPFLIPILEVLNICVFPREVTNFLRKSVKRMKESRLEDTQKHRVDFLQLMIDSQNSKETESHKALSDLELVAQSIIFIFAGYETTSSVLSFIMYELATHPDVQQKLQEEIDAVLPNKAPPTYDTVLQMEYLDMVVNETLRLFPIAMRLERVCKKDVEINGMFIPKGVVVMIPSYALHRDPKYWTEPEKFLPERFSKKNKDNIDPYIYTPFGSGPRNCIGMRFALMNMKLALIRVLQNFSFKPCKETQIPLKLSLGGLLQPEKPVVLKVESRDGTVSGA

Q: Which IC50 (CYP3A4) does the source give for `O=C(N[C@@H]1CCNC1)c1ccn(S(=O)(=O)c2cccc(Cl)c2)c1-c1ccc(F)cc1` [Compound 27, (R)-2-(4-Fluorophenyl)-1-[(3-chlorophenyl)sulfonyl]-N-(pyrrolidin-3-yl)-1H-pyrrole-3-carboxamide] here?
A: 69 nM

Q: What about the “cell membrane integrity (LDH test)” value (HepG2 cells) of the same compound?
A: did not affect the cell membrane integrity

Q: And the “mutagenicity (Ames test)” value [1]?
A: non-mutagenic

Reference: PMC8041276 (ACS Chemical Neuroscience, 2021)
